Laboratory results taken from PubChem BioAssay AID248 (DTP/NCI, 2004).
“And” between values parts separate entries of the source, which are not always exact repeats. Equal values may be shown once. Inconclusive results and toxic doses are left out.

Tested on: L1210 leukemia ip in BDF1 mice, survival T/C
Assay: NCI In Vivo Anticancer Drug Screen. Data for tumor model L1210 Leukemia (intraperitoneal) in B6D2F1 (BDF1) mice
Conditions: higher = longer survival
Summary of the method: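 Transplantable tumor model; survival measured in treated vs vehicle control mice. Value = treated/control.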

[1] = endpoint: mean survival time, dose: 100.0 mg/kg/injection, schedule: Q04DX002 (ip), vehicle: saline with Tween-80
[2] = endpoint: mean survival time, dose: 100.0 mg/kg/injection, schedule: Q01DX001 (ip), vehicle: saline
[3] = endpoint: mean survival time, dose: 200.0 mg/kg/injection, schedule: Q01DX001 (ip), vehicle: saline
[4] = endpoint: mean survival time, dose: 400.0 mg/kg/injection, schedule: Q01DX001 (ip), vehicle: saline
[5] = endpoint: mean survival time, dose: 100.0 mg/kg/injection, schedule: Q01DX001 (ip), vehicle: carboxymethylcellulose (CMC)
[6] = endpoint: mean survival time, dose: 200.0 mg/kg/injection, schedule: Q01DX001 (ip), vehicle: carboxymethylcellulose (CMC)
[7] = endpoint: mean survival time, dose: 400.0 mg/kg/injection, schedule: Q01DX001 (ip), vehicle: carboxymethylcellulose (CMC)
[8] = endpoint: mean survival time, dose: 125.0 mg/kg/injection, schedule: Q01DX Z (ip), vehicle: saline
[9] = endpoint: mean survival time, dose: 100.0 mg/kg/injection, schedule: Q04DX002 (ip), vehicle: saline
[10] = endpoint: mean survival time, dose: 100.0 mg/kg/injection, schedule: Q01DX009 (ip), vehicle: Klucel (hydroxypropylcellulose) (HPC)
[11] = endpoint: mean survival time, dose: 200.0 mg/kg/injection, schedule: Q01DX009 (ip), vehicle: Klucel (hydroxypropylcellulose) (HPC)
[12] = endpoint: mean survival time, dose: 400.0 mg/kg/injection, schedule: Q01DX009 (ip), vehicle: Klucel (hydroxypropylcellulose) (HPC)

SMILES: O=C1OCC/C1=C/CCCCCC/C=C1\CCOC1=O
- T/C (endpoint: mean survival time, dose: 50.0 mg/kg/injection, schedule: Q01DX009 (ip), vehicle: DMSO): 92 % of control
- T/C (endpoint: mean survival time, dose: 100.0 mg/kg/injection, schedule: Q01DX009 (ip), vehicle: DMSO): 90 % of control
- T/C (endpoint: mean survival time, dose: 100.0 mg/kg/injection, schedule: Q04DX003 (ip), vehicle: DMSO): 102 % of control
- T/C (endpoint: mean survival time, dose: 200.0 mg/kg/injection, schedule: Q01DX009 (ip), vehicle: DMSO): 91 % of control
- T/C (endpoint: mean survival time, dose: 200.0 mg/kg/injection, schedule: Q04DX003 (ip), vehicle: DMSO): 101 % of control
- T/C (endpoint: mean survival time, dose: 400.0 mg/kg/injection, schedule: Q04DX003 (ip), vehicle: DMSO): 94 % of control

SMILES: CC1(C)C2CCC1(C)C(CO)C2 (stereo not given)
- T/C (endpoint: mean survival time, dose: 100.0 mg/kg/injection, schedule: Q04DX003 (ip), vehicle: other): 100 % of control
- T/C (endpoint: mean survival time, dose: 200.0 mg/kg/injection, schedule: Q04DX003 (ip), vehicle: other): 102 % of control

SMILES: CC(=O)OC[C@]12CCC(C)=CC1O[C@@H]1C(OC(C)=O)[C@@H](O)[C@@]2(C)[C@]12CO2 (stereo not given in full)
- T/C (endpoint: mean survival time, dose: 0.4 mg/kg/injection, schedule: Q01DX009 (ip), vehicle: other): 97 % of control
- T/C (endpoint: mean survival time, dose: 0.8 mg/kg/injection, schedule: Q01DX009 (ip), vehicle: other): 114 % of control
- T/C (endpoint: mean survival time, dose: 1.6 mg/kg/injection, schedule: Q01DX009 (ip), vehicle: other): 114 % of control
- T/C (endpoint: mean survival time, dose: 3.2 mg/kg/injection, schedule: Q01DX009 (ip), vehicle: other): 116 % of control

SMILES: CC(C)P(=O)(CC(=O)O)c1ccccc1 (stereo not given)
- T/C [1]: 100 % of control
- T/C (endpoint: mean survival time, dose: 400.0 mg/kg/injection, schedule: Q04DX002 (ip), vehicle: saline with Tween-80): 97 % of control

SMILES: O=C(COC(=O)c1ccccc1O)c1ccc(-c2ccccc2)cc1
- T/C [2]: 94 % of control
- T/C [3]: 88 % of control
- T/C [4]: 88 % of control

SMILES: CC(=O)C(C(C)=O)c1cc(NS(=O)(=O)N(C)C)ccc1NS(=O)(=O)N(C)C
- T/C (endpoint: mean survival time, dose: 75.0 mg/kg/injection, schedule: Q04DX003 (ip), vehicle: Klucel (hydroxypropylcellulose) (HPC)): 89 % of control
- T/C (endpoint: mean survival time, dose: 150.0 mg/kg/injection, schedule: Q04DX003 (ip), vehicle: Klucel (hydroxypropylcellulose) (HPC)): 108 % of control
- T/C (endpoint: mean survival time, dose: 300.0 mg/kg/injection, schedule: Q04DX003 (ip), vehicle: Klucel (hydroxypropylcellulose) (HPC)): 96 % of control

SMILES: COC1=C(OC)C(=O)c2ccccc2C1=O
- T/C (endpoint: mean survival time, dose: 12.5 mg/kg/injection, schedule: Q01DX009 (ip), vehicle: Klucel (hydroxypropylcellulose) (HPC)): 95 % of control
- T/C (endpoint: mean survival time, dose: 25.0 mg/kg/injection, schedule: Q01DX009 (ip), vehicle: Klucel (hydroxypropylcellulose) (HPC)): 92 % of control
- T/C (endpoint: mean survival time, dose: 50.0 mg/kg/injection, schedule: Q01DX009 (ip), vehicle: Klucel (hydroxypropylcellulose) (HPC)): 98 % of control

SMILES: CCOc1ccc(N=Cc2ccccc2OC(=O)c2ccccc2)cc1
- T/C (endpoint: mean survival time, dose: 100.0 mg/kg/injection, schedule: Q04DX002 (ip), vehicle: Klucel (hydroxypropylcellulose) (HPC)): 105 % of control
- T/C (endpoint: mean survival time, dose: 200.0 mg/kg/injection, schedule: Q04DX002 (ip), vehicle: Klucel (hydroxypropylcellulose) (HPC)): 101 % of control
- T/C (endpoint: mean survival time, dose: 400.0 mg/kg/injection, schedule: Q04DX002 (ip), vehicle: Klucel (hydroxypropylcellulose) (HPC)): 97 % of control

SMILES: N#Cc1ccc(NC(=O)COc2cccc(Cl)c2)cc1
- T/C (endpoint: mean survival time, dose: 37.5 mg/kg/injection, schedule: Q01DX001 (ip), vehicle: saline with Tween-80): 95 % of control
- T/C (endpoint: mean survival time, dose: 150.0 mg/kg/injection, schedule: Q01DX001 (ip), vehicle: saline with Tween-80): 92 % of control

SMILES: Cc1ccc(NSC(Cl)(Cl)Cl)cc1
- T/C (endpoint: mean survival time, dose: 50.0 mg/kg/injection, schedule: Q04DX002 (ip), vehicle: saline with Tween-80): 101 % of control
- T/C [1]: 106 % of control and 108 % of control
- T/C (endpoint: mean survival time, dose: 200.0 mg/kg/injection, schedule: Q04DX002 (ip), vehicle: saline with Tween-80): 98 % of control and 123 % of control

SMILES: CCN(CC)c1cc(C)c2cc(Cc3ccccc3)ccc2n1
- T/C [5]: 98 % of control
- T/C [6]: 96 % of control
- T/C [7]: 101 % of control

SMILES: Cc1cccc(NNC(N)=O)c1
- T/C (endpoint: mean survival time, dose: 55.0 mg/kg/injection, schedule: Q01DX Z (ip), vehicle: saline): 103 % of control
- T/C (endpoint: mean survival time, dose: 83.0 mg/kg/injection, schedule: Q01DX Z (ip), vehicle: saline): 97 % of control
- T/C [8]: 101 % of control

SMILES: CCOC(=O)/C(C#N)=C/NN
- T/C (endpoint: mean survival time, dose: 6.25 mg/kg/injection, schedule: Q04DX003 (ip), vehicle: saline): 100 % of control
- T/C (endpoint: mean survival time, dose: 12.5 mg/kg/injection, schedule: Q04DX003 (ip), vehicle: saline): 96 % of control
- T/C (endpoint: mean survival time, dose: 25.0 mg/kg/injection, schedule: Q04DX003 (ip), vehicle: saline): 96 % of control

SMILES: O=C1NC(=S)S/C1=C\c1ccc([N+](=O)[O-])cc1
- T/C [2]: 90 % of control

SMILES: CCC(=O)CC1CCCC(CC(=O)CC)N1C (stereo not given)
- T/C (endpoint: mean survival time, dose: 9.5 mg/kg/injection, schedule: Q01DX001 (ip), vehicle: saline): 96 % of control
- T/C (endpoint: mean survival time, dose: 19.0 mg/kg/injection, schedule: Q01DX001 (ip), vehicle: saline): 104 % of control
- T/C (endpoint: mean survival time, dose: 38.0 mg/kg/injection, schedule: Q01DX001 (ip), vehicle: saline): 102 % of control

SMILES: CCN(CC)CCCNC(c1ccc(Cl)cc1)C(Cl)(Cl)Cl (stereo not given)
- T/C (endpoint: mean survival time, dose: 75.0 mg/kg/injection, schedule: Q01DX001 (ip), vehicle: saline): 88 % of control

SMILES: Nc1c(Cl)cc2c(c1Cl)Cc1c-2cc(Br)c(N)c1Br
- T/C (endpoint: median survival time, dose: 5.0 mg/kg/injection, schedule: Q04DX003 (ip), vehicle: saline): 121 % of control
- T/C (endpoint: median survival time, dose: 10.0 mg/kg/injection, schedule: Q04DX003 (ip), vehicle: saline): 153 % of control
- T/C (endpoint: median survival time, dose: 20.0 mg/kg/injection, schedule: Q04DX003 (ip), vehicle: saline): 180 % of control
- T/C (endpoint: median survival time, dose: 40.0 mg/kg/injection, schedule: Q04DX003 (ip), vehicle: saline): 223 % of control
- T/C (endpoint: median survival time, dose: 50.0 mg/kg/injection, schedule: Q07DX003 (ip), vehicle: saline): 211 % of control
- T/C (endpoint: median survival time, dose: 80.0 mg/kg/injection, schedule: Q04DX003 (ip), vehicle: saline): 223 % of control
- T/C (endpoint: median survival time, dose: 100.0 mg/kg/injection, schedule: Q07DX003 (ip), vehicle: saline): 202 % of control
- T/C (endpoint: median survival time, dose: 200.0 mg/kg/injection, schedule: Q07DX003 (ip), vehicle: saline): 54 % of control
- T/C (endpoint: median survival time, dose: 400.0 mg/kg/injection, schedule: Q07DX003 (ip), vehicle: saline): 53 % of control

SMILES: Sc1cccc2c(S)cccc12
- T/C (endpoint: mean survival time, dose: 50.0 mg/kg/injection, schedule: Q01DX001 (ip), vehicle: carboxymethylcellulose (CMC)): 100 % of control
- T/C [5]: 97 % of control
- T/C [6]: 103 % of control
- T/C [7]: 100 % of control

SMILES: CC(C)(C)N1CC1
- T/C (endpoint: mean survival time, dose: 25.0 mg/kg/injection, schedule: Q04DX002 (ip), vehicle: saline): 103 % of control
- T/C (endpoint: mean survival time, dose: 50.0 mg/kg/injection, schedule: Q01DX009 (ip), vehicle: saline): 101 % of control
- T/C (endpoint: mean survival time, dose: 50.0 mg/kg/injection, schedule: Q04DX002 (ip), vehicle: saline): 93 % of control
- T/C [2]: 106 % of control
- T/C (endpoint: mean survival time, dose: 100.0 mg/kg/injection, schedule: Q01DX009 (ip), vehicle: saline): 111 % of control
- T/C [9]: 93 % of control
- T/C [3]: 106 % of control
- T/C (endpoint: mean survival time, dose: 200.0 mg/kg/injection, schedule: Q01DX009 (ip), vehicle: saline): 103 % of control

SMILES: O=C(Nc1cccc(Cl)c1Cl)Oc1ccc2ccccc2c1
- T/C [10]: 100 % of control
- T/C [11]: 105 % of control
- T/C [12]: 103 % of control

SMILES: CCCCC(=O)OC1CC2CCC1(C)C2(C)C (stereo not given)
- T/C [10]: 102 % of control
- T/C (endpoint: mean survival time, dose: 100.0 mg/kg/injection, schedule: Q04DX003 (ip), vehicle: Klucel (hydroxypropylcellulose) (HPC)): 96 % of control
- T/C [11]: 102 % of control
- T/C (endpoint: mean survival time, dose: 200.0 mg/kg/injection, schedule: Q04DX003 (ip), vehicle: Klucel (hydroxypropylcellulose) (HPC)): 96 % of control
- T/C [12]: 104 % of control
- T/C (endpoint: mean survival time, dose: 400.0 mg/kg/injection, schedule: Q04DX003 (ip), vehicle: Klucel (hydroxypropylcellulose) (HPC)): 100 % of control

SMILES: C(COCCOCC1CO1)OCCOCC1CO1 (stereo not given)
- T/C (endpoint: mean survival time, dose: 62.0 mg/kg/injection, schedule: Q01DX Z (ip), vehicle: saline): 110 % of control
- T/C [8]: 117 % of control
- T/C (endpoint: mean survival time, dose: 250.0 mg/kg/injection, schedule: Q01DX Z (ip), vehicle: saline): 116 % of control
- T/C (endpoint: mean survival time, dose: 500.0 mg/kg/injection, schedule: Q01DX Z (ip), vehicle: saline): 108 % of control

SMILES: CCCCCCCCOC(=O)CCCc1ccc(N(CCCl)CCCl)cc1
- T/C [9]: 104 % of control
- T/C (endpoint: mean survival time, dose: 200.0 mg/kg/injection, schedule: Q04DX002 (ip), vehicle: saline): 108 % of control
- T/C (endpoint: mean survival time, dose: 400.0 mg/kg/injection, schedule: Q04DX002 (ip), vehicle: saline): 111 % of control
